Results: US20260265233A1, “BENZOTHIOPHENE DERIVATIVES AS RXFP1 AGONISTS” (BRISTOL-MYERS SQUIBB COMPANY, priority 2021, published 2026)
pEC50: −log10 of the molar value.

These molecules were tested against T1, human RXFP1 (Homo sapiens, UniProt Q9HBX9) (assay: hRXFP1 HEK293 cAMP assay (HTRF)). Conditions: HEK293 cells stably expressing human RXFP1; 30 min at rt; intracellular cAMP by HTRF.
T1 construct: expressed in transfected cells
T1 sequence (Q9HBX9 1-757): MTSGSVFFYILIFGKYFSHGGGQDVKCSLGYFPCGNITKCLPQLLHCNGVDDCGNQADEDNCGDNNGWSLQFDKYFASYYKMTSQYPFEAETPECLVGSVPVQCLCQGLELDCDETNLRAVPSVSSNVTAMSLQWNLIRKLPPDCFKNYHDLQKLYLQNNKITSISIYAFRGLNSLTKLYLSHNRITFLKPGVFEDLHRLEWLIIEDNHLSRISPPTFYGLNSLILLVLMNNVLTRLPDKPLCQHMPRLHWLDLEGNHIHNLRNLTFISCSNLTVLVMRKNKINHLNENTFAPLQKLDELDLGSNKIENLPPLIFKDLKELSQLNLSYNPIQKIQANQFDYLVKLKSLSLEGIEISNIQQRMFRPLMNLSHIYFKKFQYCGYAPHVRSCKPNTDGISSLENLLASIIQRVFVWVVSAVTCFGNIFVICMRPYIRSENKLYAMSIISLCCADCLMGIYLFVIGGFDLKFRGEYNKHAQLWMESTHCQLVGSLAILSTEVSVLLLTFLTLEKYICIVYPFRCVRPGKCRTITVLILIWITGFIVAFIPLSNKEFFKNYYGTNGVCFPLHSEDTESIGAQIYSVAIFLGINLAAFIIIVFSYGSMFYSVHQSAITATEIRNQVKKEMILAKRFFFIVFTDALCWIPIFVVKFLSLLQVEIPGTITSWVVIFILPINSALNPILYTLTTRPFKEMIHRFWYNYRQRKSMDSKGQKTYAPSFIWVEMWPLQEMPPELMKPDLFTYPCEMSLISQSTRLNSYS
Type: cell-based
Outline: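 HEK293 cells stably expressing human RXFP1 treated 30 min at rt with compound (0.010 nM to 50 μM, 2% DMSO) in HBSS/HEPES buffer with 0.5 mM IBMX. Intracellular cAMP measured by HTRF (665/590 nm ratio) against a cAMP standard curve; potency fitted by 4-parameter logistic.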

Row | Structure (SMILES) | pEC50
1 | COc1ccc(-c2cc([C@H](OC(=O)NC3CCC3)C(F)(F)F)ccc2F)cc1C(=O)Nc1c(C(=O)Nc2ccc(F)c(C(F)(F)F)c2)sc2cc(C(F)(F)F)ccc12 [Example 22, (S)-2,2,2-trifluoro-1-(6-fluoro-3′-((2-((4-fluoro-3-(trifluoromethyl)phenyl)carbamoyl)-6-(trifluoromethyl)benzo[b]thiophen-3-yl)carbamoyl)-4′-methoxy-[1, 1′-biphenyl]-3-yl) ethyl cyclobutylcarbamate] | 9.30
2 | COc1ccc(C(=O)N2CC3(C2)CS(=O)(=O)C3)cc1C(=O)Nc1c(C(=O)Nc2ccc(F)c(C(F)(F)F)c2)sc2cc(C3CC3)ncc12 [Example 29, 6-cyclopropyl-3-(5-(2,2-dioxido-2-thia-6-azaspiro [3.3]heptane-6-carbonyl)-2-methoxybenzamido)-N-(4-fluoro-3-(trifluoromethyl)phenyl) thieno [3,2-c]pyridine-2-carboxamide] | 5.87
3 | COc1ccc(S(=O)(=O)N2CCC[C@@H](NCC(N)=O)C2)cc1C(=O)Nc1c(C(=O)Nc2ccc(F)c(C(F)(F)F)c2)sc2cc(C(F)(F)F)ccc12 [Example 31] | 5.48
4 | COc1ccc(C2CCCNCC2)cc1C(=O)Nc1c(C(=O)Nc2ccc(F)c(C(F)(F)F)c2)sc2cc(C(F)(F)F)ccc12 (stereo not shown) [Example 39, 3-(5-(azepan-4-yl)-2-methoxybenzamido)-N-(4-fluoro-3-(trifluoromethyl)phenyl)-6-(trifluoromethyl)benzo[b]thiophene-2-carboxamide] | 5.55
5 | COc1ccc(C#CCO)cc1C(=O)Nc1c(C(=O)Nc2ccc(F)c(C(F)(F)F)c2)sc2cc(C(F)(F)F)ccc12 [Example 42, N-(4-fluoro-3-(trifluoromethyl)phenyl)-3-(5-(3-hydroxyprop-1-yn-1-yl)-2-methoxybenzamido)-6-(trifluoromethyl)benzo[b]thiophene-2-carboxamide] | 6.33
6 | COc1ccc(/C=C\C(=O)O)cc1C(=O)Nc1c(C(=O)Nc2ccc(F)c(C(F)(F)F)c2)sc2cc(C(F)(F)F)ccc12 [Example 45, (Z)-3-(3-((2-((4-fluoro-3-(trifluoromethyl)phenyl)carbamoyl)-6-(trifluoromethyl)benzo[b]thiophen-3-yl)carbamoyl)-4-methoxyphenyl) acrylic acid] | 6.01

Continued by rising pEC50, values first:

Row | pEC50 | Structure (SMILES)
7 | 5.60 | COc1ccc(S(=O)(=O)N2CCC[C@@H](N)C2)cc1C(=O)Nc1c(C(=O)Nc2ccc(F)c(C(F)(F)F)c2)sc2cc(C(F)(F)F)ccc12 [Example 30, (R)-3-(5-((3-aminopiperidin-1-yl)sulfonyl)-2-methoxybenzamido)-N-(4-fluoro-3-(trifluoromethyl)phenyl)-6-(trifluoromethyl) benzo[b]thiophene-2-carboxamide]
8 | 5.76 | COc1ccc(C(=O)N2CC(C)(C)C2)cc1C(=O)Nc1c(C(=O)Nc2ccc(F)c(C(F)(F)F)c2)sc2cc(C(F)(F)F)ccc12 [Example 27, 3-(5-(3,3-dimethylazetidine-1-carbonyl)-2-methoxybenzamido)-N-(4-fluoro-3-(trifluoromethyl)phenyl)-6-(trifluoromethyl) benzo[b]thiophene-2-carboxamide]
9 | 6.66 | COc1ccc(C23CCC(C(C)(C)O)(CC2)CC3)cc1C(=O)Nc1c(C(=O)Nc2ccc(F)c(C(F)(F)F)c2)sc2cc(C(F)(F)F)ccc12 [Example 40, N-(4-fluoro-3-(trifluoromethyl)phenyl)-3-(5-(4-(2-hydroxypropan-2-yl)bicyclo [2.2.2]octan-1-yl)-2-methoxybenzamido)-6-(trifluoromethyl) benzo[b]thiophene-2-carboxamide]
10 | 7.31 | COc1cc(F)c(C(=O)N2CC(S(C)(=O)=O)C2)cc1C(=O)Nc1c(C(=O)Nc2ccc(F)c(C(F)(F)F)c2)sc2cc(C(F)(F)F)ccc12 [Example 28, 3-(4-fluoro-2-methoxy-5-(3-(methylsulfonyl)azetidine-1-carbonyl)benzamido)-N-(4-fluoro-3-(trifluoromethyl)phenyl)-6-(trifluoromethyl)benzo[b]thiophene-2-carboxamide]
